One assay concerns the target T1, serotonin reuptake sites (Rattus norvegicus, UniProt P31652).
T1 construct: from tissue; host or cells: rat cortical membranes (from the title of the cited method only)
As to the kind of experiment: In vitro affinity for serotonin reuptake sites ([3H]-paroxetine binding assay, Habert et al.). To be noted: average values from three independent experiments; read-out: in vitro affinity 5-HT reuptake binding Ki. The source says: In vitro affinity for serotonin reuptake sites

Another assay has as its target T2, serotonin reuptake (Mus musculus, UniProt Q60857).
T2 construct: they potentiate 5-HTP induced behaviour in mice; from tissue; host or cells: living mice (in vivo behavioural model)
Kind of assay: Potentiation of 5-HTP induced behaviour in mice. The note with it: po, read-out: in vivo activity 5-HT reuptake 5-HTP** ED50 mg/kg po.

The target of the next assay is T3, dopamine D2 receptors (Mus musculus, UniProt P61168).
T3 construct: antagonize apomorphine-induced climbing behaviour in mice; from tissue; host or cells: living mice (in vivo behavioural model)
T3 sequence (P61168 whole entry): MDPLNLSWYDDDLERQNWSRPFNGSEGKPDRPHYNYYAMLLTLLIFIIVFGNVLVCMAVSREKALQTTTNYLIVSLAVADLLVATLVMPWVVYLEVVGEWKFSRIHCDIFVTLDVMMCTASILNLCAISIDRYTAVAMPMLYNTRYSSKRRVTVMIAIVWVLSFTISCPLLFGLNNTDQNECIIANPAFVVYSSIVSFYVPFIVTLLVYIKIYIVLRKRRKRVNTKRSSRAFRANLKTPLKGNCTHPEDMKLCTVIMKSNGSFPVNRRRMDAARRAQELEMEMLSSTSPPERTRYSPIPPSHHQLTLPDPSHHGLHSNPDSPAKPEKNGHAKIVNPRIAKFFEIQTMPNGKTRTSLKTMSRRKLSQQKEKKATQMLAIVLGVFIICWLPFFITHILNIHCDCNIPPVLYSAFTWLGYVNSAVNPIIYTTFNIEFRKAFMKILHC
As to the kind of experiment: Antagonism of apomorphine-induced climbing behaviour in mice (APO-climb). To be noted: po, read-out: in vivo activity Dopamine-D2 APO-climb* ED50 mg/kg po.

T1 sequence (P31652 whole entry): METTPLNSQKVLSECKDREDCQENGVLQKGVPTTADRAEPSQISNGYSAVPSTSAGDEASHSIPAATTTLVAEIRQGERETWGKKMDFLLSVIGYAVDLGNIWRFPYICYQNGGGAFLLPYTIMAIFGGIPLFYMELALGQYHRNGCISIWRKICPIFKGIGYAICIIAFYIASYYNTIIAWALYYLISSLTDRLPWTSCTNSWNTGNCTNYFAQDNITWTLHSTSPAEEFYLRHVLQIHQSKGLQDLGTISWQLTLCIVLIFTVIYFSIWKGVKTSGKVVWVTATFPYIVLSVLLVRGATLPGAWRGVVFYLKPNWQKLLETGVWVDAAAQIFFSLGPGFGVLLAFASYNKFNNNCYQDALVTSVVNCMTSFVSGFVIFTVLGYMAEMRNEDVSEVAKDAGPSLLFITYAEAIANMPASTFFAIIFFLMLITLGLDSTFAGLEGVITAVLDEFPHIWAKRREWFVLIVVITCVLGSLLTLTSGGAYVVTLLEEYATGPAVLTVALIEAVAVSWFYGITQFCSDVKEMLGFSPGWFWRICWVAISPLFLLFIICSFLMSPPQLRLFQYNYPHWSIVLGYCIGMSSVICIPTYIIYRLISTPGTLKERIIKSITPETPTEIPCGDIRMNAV
T2 sequence (Q60857 whole entry): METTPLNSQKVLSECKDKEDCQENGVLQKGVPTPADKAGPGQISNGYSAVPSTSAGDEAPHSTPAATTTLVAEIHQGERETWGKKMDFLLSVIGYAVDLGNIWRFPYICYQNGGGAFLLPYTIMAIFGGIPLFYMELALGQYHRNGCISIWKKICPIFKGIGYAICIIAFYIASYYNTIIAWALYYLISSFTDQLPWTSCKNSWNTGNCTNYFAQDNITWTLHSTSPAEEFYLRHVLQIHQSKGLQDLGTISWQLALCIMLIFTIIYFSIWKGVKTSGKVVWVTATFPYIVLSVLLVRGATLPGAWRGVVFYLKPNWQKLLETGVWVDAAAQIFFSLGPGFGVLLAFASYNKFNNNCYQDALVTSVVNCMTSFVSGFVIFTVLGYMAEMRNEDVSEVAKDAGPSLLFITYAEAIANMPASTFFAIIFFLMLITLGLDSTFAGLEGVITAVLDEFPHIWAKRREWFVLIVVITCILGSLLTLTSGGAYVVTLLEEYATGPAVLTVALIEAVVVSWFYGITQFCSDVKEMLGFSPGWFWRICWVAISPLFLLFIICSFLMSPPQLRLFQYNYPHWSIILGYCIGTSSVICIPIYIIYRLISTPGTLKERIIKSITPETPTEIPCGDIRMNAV

By Ki is commonly meant a measure of affinity in units of concentration, obtained from inhibition or displacement. For the compound `Clc1cccc2c(CCCN3CCN(c4cccc5c4OCCO5)CC3)c[nH]c12` [5l, 3-{3-[4-(2,3-Dihydro-benzo[1,4]dioxin-5-yl)-piperazin-1-yl]-propyl}-7-chloro-1H-indole], the Ki on serotonin reuptake sites turned out to be 7.9 ± 2.8 nM.
As to `c1cc2c(c(N3CCN(Cc4c[nH]c5ccccc45)CC3)c1)OCCO2` [compound 5a, 3-[4-(2,3-Dihydro-benzo[1,4]dioxin-5-yl)-piperazin-1-yl-methyl]-1H-indole], at serotonin reuptake sites, the Ki amounted to 176 ± 59 nM.
As for `c1cc2c(c(N3CCN(CCCc4c[nH]c5ccccc45)CC3)c1)OCCO2` [compound 5b, 3-{3-[4-(2,3-Dihydro-benzo[1,4]dioxin-5-yl)-piperazin-1-yl]-propyl}-1H-indole], on serotonin reuptake sites, the Ki came to 0.4 ± 0.1 nM. Also, the ED50 at serotonin reuptake worked out at 22 mg/kg; at dopamine D2 receptors it was 10 mg/kg.
For the compound `c1cc2c(c(N3CCN(CCCCCc4c[nH]c5ccccc45)CC3)c1)OCCO2` [compound 5c, 3-{5-[4-(2,3-Dihydro-benzo[1,4]dioxin-5-yl)-piperazin-1-yl]-pentyl}-1H-indole], the Ki on serotonin reuptake sites was determined as 37 ± 3 nM.
Take `Fc1cccc2[nH]cc(CCCN3CCN(c4cccc5c4OCCO5)CC3)c12` [compound 5d, 3-{3-[4-(2,3-Dihydro-benzo[1,4]dioxin-5-yl)-piperazin-1-yl]-propyl}-4-fluoro-1H-indole]: the Ki at serotonin reuptake sites was determined as 0.4 ± 0.1 nM. The ED50 on serotonin reuptake amounted to 32 mg/kg; on dopamine D2 receptors it was 13 mg/kg.
Take `Fc1ccc2[nH]cc(CCCN3CCN(c4cccc5c4OCCO5)CC3)c2c1` [compound 5e, 3-{3-[4-(2,3-Dihydro-benzo[1,4]dioxin-5-yl)-piperazin-1-yl]-propyl}-5-fluoro-1H-indole]: the Ki at serotonin reuptake sites came to 0.3 ± 0.1 nM. Also, the ED50 on serotonin reuptake was determined as 2 mg/kg.
Consider `Fc1ccc2c(CCCN3CCN(c4cccc5c4OCCO5)CC3)c[nH]c2c1` [compound 5f, 3-{3-[4-(2,3-Dihydro-benzo[1,4]dioxin-5-yl)-piperazin-1-yl]-propyl}-6-fluoro-1H-indole], for which, on serotonin reuptake sites, the Ki is 1.6 ± 0.2 nM. Further, the ED50 at dopamine D2 receptors was found to be 9 mg/kg.
As to `Fc1cccc2c(CCCN3CCN(c4cccc5c4OCCO5)CC3)c[nH]c12` [compound 5g, 3-{3-[4-(2,3-Dihydro-benzo[1,4]dioxin-5-yl)-piperazin-1yl]-propyl}-7-fluoro-1H-indole], the Ki at serotonin reuptake sites amounted to 0.6 ± 0.1 nM. Moreover, on serotonin reuptake, the ED50 amounted to 28.4 mg/kg.
On to `COc1ccc2[nH]cc(CCCN3CCN(c4cccc5c4OCCO5)CC3)c2c1` [compound 5h, 3-{3-[4-(2,3-Dihydro-benzo[1,4]dioxin-5-yl)-piperazin-1-yl]-propyl}-5-methoxy-1H-indole], for which the Ki on serotonin reuptake sites was 14 ± 4 nM.
Take `Clc1cccc2[nH]cc(CCCN3CCN(c4cccc5c4OCCO5)CC3)c12` [compound 5i, 3-{3-[4-(2,3-Dihydro-benzo[1,4]dioxin-5-yl)-piperazin-1-yl]-propyl}-4-chloro-1H-indole]: at serotonin reuptake sites, the Ki was 1.4 ± 0.4 nM.
Consider `Clc1ccc2c(CCCN3CCN(c4cccc5c4OCCO5)CC3)c[nH]c2c1` [compound 5k, 3-{3-[4-(2,3-Dihydro-benzo[1,4]dioxin-5-yl)-piperazin-1-yl]-propyl}-6-chloro-1H-indole], for which, on serotonin reuptake sites, the Ki was 2 ± 0.7 nM. For the same compound, the ED50 on serotonin reuptake came to 86 mg/kg; at dopamine D2 receptors, 4.5 mg/kg.
For `Cc1cccc2c(CCCN3CCN(c4cccc5c4OCCO5)CC3)c[nH]c12` [compound 5n, 3-{3-[4-(2,3-Dihydro-benzo[1,4]dioxin-5-yl)-piperazin-1-yl]-propyl}-7-methyl-1H-indole], the Ki at serotonin reuptake sites worked out at 12 ± 5 nM.
Take `c1cc2c(c(N3CCN(CCCc4c[nH]c5ccccc45)CC3)c1)CCCO2` [compound 14, 3-[3-(4-chroman-5-yl-piperazine-1-yl)-propyl]-1H-indole]: the Ki on serotonin reuptake sites worked out at 1.1 ± 0.3 nM.
